Literature values in US20260295054A1, “GLUCAGON-LIKE PEPTIDE-1 RECEPTOR AGONIST VARIANTS AND METHODS THEREOF” (Neuraly, Inc., priority 2023, published 2026).
Like-named read-outs stand apart in the source and are kept apart here.

Tests used:
type 2 diabetic subjects = conditions: for HbA1c reduction from baseline: week 16
[1] = humans

Substance: albiglutide
- HbA1c reduction from baseline (type 2 diabetic subjects; 30 mg weekly): 0.87%
- HbA1c reduction from baseline (type 2 diabetic subjects; 50 mg biweekly): 0.79%
- HbA1c reduction from baseline (type 2 diabetic subjects; 100 mg monthly): 0.87%
- albiglutide concentrations between monthly doses (type 2 diabetic subjects; monthly dosing): fall essentially to zero between monthly doses
- fasting blood glucose control (type 2 diabetic subjects; monthly dosing): substantial loss in fasting blood glucose control
- nausea and vomiting on dosing days (type 2 diabetic subjects; monthly vs weekly dosing): significantly greater incidence of nausea and vomiting
- serum half-life [1]: ~ 5 days
